{"source": "patent US20140329706A1", "about": "“AFFINITY TAGS, AND RELATED AFFINITY LIGANDS, ENGINEERED PROTEINS, MODIFIED SUPPORTS, COMPOSITIONS, METHODS AND SYSTEMS” (CALIFORNIA INSTITUTE OF TECHNOLOGY, priority 2013, published 2014)", "key": {"[1]": {"tested_on": "NR2B C-terminal PDZ domain binding peptide, 1× nNOS PDZ-β-hairpin domains or 2× nNOS PDZ-β-hairpin domains", "assay": "Binding of control MBP or GST to peptide and nNOS PDZ affinity resins", "conditions": "expressed alone without a PDZ domain", "excerpt": "In order to test the hypothesis, PSD-95 PDZ2 domains (e.g. Type C PDZ affinity tags) were fused N- or C-terminally to MBP, or internally between an MBP and GST proteins and purified using affinity chromatography resins comprised of NR2B C-terminal PDZ domain binding peptide (H3N+-[…]-COO—), 1× nNOS PDZ-β-hairpin domains or 2× nNOS PDZ-β-hairpin domains. […] Tags performed equally when fused internally or C-terminally, however N-terminal tag fusions were purified in slightly lower yield.\nFor the experiment, MBP, GST and PSD-95 PDZ2 domains protein or fusion proteins consisting of MBP and/or GST fused in frame with N-terminal, internal or C-terminal PSD-95 PDZ2 domains (e.g. Type C PDZ affinity tags) were expressed in BL21(DE3) E. coli cells. […] Bacterial cell pellets (0.4-2.5 grams) containing the proteins of interest were resuspended in 5 ml/g cell paste of BugBuster Lysis Buffer [1× BugBuster (Cat. No. 70921, EMD Millipore, Billerica Mass.), 50 mM HEPES, 150 mM NaCl, 5 mM TCEP, 0.5 mM EDTA, 10 mM MgCl2, 2 mM PMSF, Complete Protease Inhibitor supplemented with 25 U/ml Benzonase and 10 U/ml ReadyLyse]. […] Eluted protein was analyzed on 4-12% bis-tris SDS-PAGE gels and proteins were detected by Gel Code Blue staining."}, "[2]": {"conditions": "refs (54-58); read-out: approximate KD; cited from earlier work"}, "[3]": {"molecular_target": "T1, PSD-95 PDZ2 coupled to a solid support (Mus musculus, UniProt Q62108)", "T1 construct": "pJExpress414 plasmids containing a gene coding for the PDZ2 domain of PSD-95; made in house; host or cells: E. coli BL21(DE3)", "T1 sequence (Q62108 160-246 limits assumed)": "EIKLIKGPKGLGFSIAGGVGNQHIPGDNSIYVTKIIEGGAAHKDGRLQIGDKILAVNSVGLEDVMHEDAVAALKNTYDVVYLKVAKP", "assay": "Binding of NR2B tail truncation fusion proteins to PSD-95 PDZ2 affinity resin", "conditions": "elution with SIESDV peptide, SDS-PAGE", "description": "For the experiment, fusion proteins containing THX fused to varying numbers of residues from the NR2B Tail ([…]) were expressed in BL21(DE3) E. coli cells. Single colonies of BL21(DE3) cells harboring pJExpress414 plasmids containing genes of interest were grown overnight at 37° C. in 5 ml of lysogeny broth (LB) (Cat. No. L9110, Teknova, Hollister, Calif.) supplemented with 100 ug/ml carbenicillin. Overnight cultures were diluted 1:500 into Overnight Express Instant Terrific Broth (TB) Media (Cat. No. 71491, EMD Millipore, Billerica, Mass.), grown for 16 h at 37° C., pelleted by centrifugation, and flash frozen in liquid nitrogen. Bacterial cell pellets (0.4-2.5 grams) containing fusions of THX fused to varying numbers of residues from the NR2B Tail ([…]) were resuspended in 5 ml/g cell paste of BugBuster Lysis Buffer [1× BugBuster (Cat. No. 70921, EMD Millipore, Billerica Mass.), 50 mM HEPES, 150 mM NaCl, 5 mM TCEP, 0.5 mM EDTA, 10 mM MgCl2, 2 mM PMSF, Complete Protease Inhibitor supplemented with 25 U/ml Benzonase and 10 U/ml ReadyLyse]. Resuspended cells were incubated on a shaking platform at low speed for 20 minutes at room temperature before the lysate was clarified by centrifugation at 16,000×g for 30 min at 4° C. […] Eluted protein was analyzed on 4-12% bis-tris SDS-PAGE gels and proteins were detected by Gel Code Blue staining.\nFor the experiment, fusion proteins containing MBP fused to varying numbers of residues from the NR2B Tail ([…]) were expressed in BL21(DE3) E. coli cells. […] Bacterial cell pellets (0.4-2.5 grams) containing fusions of MBP fused to varying numbers of residues from the NR2B Tail ([…]) were resuspended in 5 ml/g cell paste of BugBuster Lysis Buffer [1× BugBuster (Cat. No. 70921, EMD Millipore, Billerica Mass.), 50 mM HEPES, 150 mM NaCl, 5 mM TCEP, 0.5 mM EDTA, 10 mM MgCl2, 2 mM PMSF, Complete Protease Inhibitor supplemented with 25 U/ml Benzonase and 10 U/ml ReadyLyse]. […]"}, "[4]": {"conditions": "untagged LacZ, Wallenfels & Malhotra, cited from earlier work"}, "PDZ2 domain of PSD-95": {"molecular_target": "PDZ2 domain of PSD-95 (Rattus norvegicus, UniProt P31016)", "conditions": "cited from earlier work"}, "PDZ1 domain of PSD-95": {"molecular_target": "PDZ1 domain of PSD-95 (Rattus norvegicus, UniProt P31016)", "conditions": "cited from earlier work"}}, "note": "Where two headings read alike, the source gives them in different places. Where no end group is shown, it is not given here. MBP = maltose binding protein (fusion tag)"}
{"substance": "GST: glutathione-S-transferase, known affinity tag and control fusion partner", "values": [{"measurement": "binding to affinity resins", "setting": "[1]", "result": "did not bind to any of the three affinity resins"}, {"measurement": "Kd", "setting": "[2]", "result": "40000 to 170000", "unit": "nM"}]}
{"substance": "GST-EKLSSIESD: GST fused to NR2B tail sequence lacking the C-terminal valine ({GST}-EKLSSIESD)", "values": [{"measurement": "binding to and elution from PSD-95 PDZ2 matrix", "setting": "[3]", "result": "abolished binding to the column"}]}
{"substance": "IESDV", "values": [{"measurement": "binding to and elution from PSD-95 PDZ2 matrix", "setting": "[3]", "result": "required for effective binding to and elution from the PDZ2 PSD-95 matrix"}]}
{"substance": "LacZ: untagged β-Galactosidase, literature values", "values": [{"measurement": "Km", "setting": "[4]; ONPG", "result": 161, "unit": "µM"}, {"measurement": "VMAX (umol ONPG/mg protein*min)", "setting": "[4]", "result": "178* umol ONPG/mg protein*min"}]}
{"substance": "SIESDV", "values": [{"measurement": "Kd", "setting": "PDZ2 domain of PSD-95; ref (49)", "result": 700, "unit": "nM"}, {"measurement": "Kd", "setting": "PDZ2 domain of PSD-95; ref (134)", "result": 1300, "unit": "nM"}, {"measurement": "Kd", "setting": "PDZ1 domain of PSD-95; ref (49)", "result": 2300, "unit": "nM"}, {"measurement": "Kd", "setting": "PDZ1 domain of PSD-95; ref (134)", "result": 9700, "unit": "nM"}]}
{"substance": "MBP-EKLSSIESD: MBP fused to NR2B tail sequence lacking the C-terminal valine ({MBP}-EKLSSIESD)", "values": [{"measurement": "binding to and elution from PSD-95 PDZ2 matrix", "setting": "[3]", "result": "abolished binding to the column"}]}
